Test results: ChEMBL document CHEMBL5365466, “Discovery of Triazolyl Derivatives of Cucurbitacin B Targeting IGF2BP1 against Non-Small Cell Lung Cancer” (J Med Chem, 2023)
pIC50, pKd: −log10 of the molar value.

What was measured:
A549 [1] = experiment: Antiproliferative activity against human A549 cells assessed as cell growth inhibition; type: functional, cell-based
HCT-116 [2] = experiment: Antiproliferative activity against human HCT-116 cells assessed as cell growth inhibition at 1 uM incubated for 72 hrs by SRB assay; type: functional
HCT-116 [3] = experiment: Antiproliferative activity against human HCT-116 cells assessed as cell growth inhibition at 0.1 uM incubated for 72 hrs by SRB assay; type: functional
[4] = Antiproliferative activity against human L02 cells assessed as cell growth inhibition at 1 uM incubated for 72 hrs by SRB assay; type: toxicity, cell-based
[5] = Antiproliferative activity against human L02 cells assessed as cell growth inhibition at 0.1 uM incubated for 72 hrs by SRB assay; type: toxicity, cell-based
HCT-116 [6] = experiment: Antiproliferative activity against human HCT-116 cells assessed as cell growth inhibition incubated for 72 hrs by SRB assay; type: functional, cell-based; details: HCT-116, 72 h
[7] = Antiproliferative activity against human L02 cells assessed as cell growth inhibition incubated for 72 hrs by SRB assay; type: toxicity, cell-based
[8] = Selectivity index, ratio of IC50 for antiproliferative activity against human L02 cells to IC50 for antiproliferative activity against human HCT-116 cells; type: toxicity, cell-based; details: L02 cells versus HCT-116 cells, read-out: Ratio IC50
A549 [9] = experiment: Antiproliferative activity against human A549 cells assessed as cell growth inhibition incubated for 72 hrs by SRB assay; type: functional, cell-based; details: A549, 72 h
MDA-MB-231 = experiment: Antiproliferative activity against human MDA-MB-231 cells assessed as cell growth inhibition incubated for 72 hrs by SRB assay; type: functional, cell-based; details: MDA-MB-231, 72 h
MCF7 = experiment: Antiproliferative activity against human MCF7 cells assessed as cell growth inhibition incubated for 72 hrs by SRB assay; type: functional, cell-based; details: MCF7, 72 h
SK-OV-3 = experiment: Antiproliferative activity against human SK-OV-3 cells assessed as cell growth inhibition incubated for 72 hrs by SRB assay; type: functional, cell-based; details: SK-OV-3, 72 h
HeLa = experiment: Antiproliferative activity against human HeLa cells assessed as cell growth inhibition incubated for 72 hrs by SRB assay; type: functional, cell-based
HepG2 [10] = experiment: Antiproliferative activity against human HepG2 cells assessed as cell growth inhibition incubated for 72 hrs by SRB assay; type: functional, cell-based; details: HepG2, 72 h
BXPC-3 = experiment: Antiproliferative activity against human BXPC-3 cells assessed as cell growth inhibition incubated for 72 hrs by SRB assay; type: functional, cell-based; details: BXPC-3, 72 h
PANC-1 = experiment: Antiproliferative activity against human PANC-1 cells assessed as cell growth inhibition incubated for 72 hrs by SRB assay; type: functional, cell-based; details: PANC-1, 72 h
CFPAC-1 = experiment: Antiproliferative activity against human CFPAC-1 cells assessed as cell growth inhibition incubated for 72 hrs by SRB assay; type: functional, cell-based; details: CFPAC-1, 72 h
[11] = Selectivity index, ratio of IC50 for antiproliferative activity against human L02 cells to IC50 for antiproliferative activity against human A549 cells; type: toxicity, cell-based; details: L02 cells versus A549 cells, read-out: Ratio IC50
[12] = Selectivity index, ratio of IC50 for antiproliferative activity against human L02 cells to IC50 for antiproliferative activity against human MDA-MB-231 cells; type: toxicity, cell-based; details: L02 cells versus MDA-MB-231 cells, read-out: Ratio IC50
[13] = Selectivity index, ratio of IC50 for antiproliferative activity against human L02 cells to IC50 for antiproliferative activity against human MCF7 cells; type: toxicity, cell-based; details: L02 cells versus MCF7 cells, read-out: Ratio IC50
[14] = Selectivity index, ratio of IC50 for antiproliferative activity against human L02 cells to IC50 for antiproliferative activity against human SK-OV-3 cells
[15] = Selectivity index, ratio of IC50 for antiproliferative activity against human L02 cells to IC50 for antiproliferative activity against human HeLa cells; type: toxicity, cell-based; details: L02 cells versus HeLa cells, read-out: Ratio IC50
[16] = Selectivity index, ratio of IC50 for antiproliferative activity against human L02 cells to IC50 for antiproliferative activity against human HepG2 cells; type: toxicity, cell-based; details: L02 cells versus HepG2 cells, read-out: Ratio IC50
[17] = Selectivity index, ratio of IC50 for antiproliferative activity against human L02 cells to IC50 for antiproliferative activity against human BXPC-3 cells; type: toxicity, cell-based; details: L02 cells versus BXPC-3 cells, read-out: Ratio IC50
[18] = Selectivity index, ratio of IC50 for antiproliferative activity against human L02 cells to IC50 for antiproliferative activity against human PANC-1 cells
[19] = Selectivity index, ratio of IC50 for antiproliferative activity against human L02 cells to IC50 for antiproliferative activity against human CFPAC-1 cells
A549 [20] = experiment: Induction of apoptosis in human A549 cells at 0.5 uM incubated for 48 hrs by Annexin V-FITC/PI staining based flow cytometric analysis; type: functional
A549 [21] = experiment: Induction of cell cycle arrest in human A549 cells assessed as accumulation of cells at G1 phase at 0.5 uM incubated for 24 hrs by PI staining based flow cytometric analysis (reference value: 65.6 %); type: functional
A549 [22] = experiment: Induction of cell cycle arrest in human A549 cells assessed as accumulation of cells at S phase at 0.5 uM incubated for 24 hrs by PI staining based flow cytometric analysis (reference value: 23 %); type: functional
A549 [23] = experiment: Induction of cell cycle arrest in human A549 cells assessed as accumulation of cells at G2 phase at 0.5 uM incubated for 24 hrs by PI staining based flow cytometric analysis (reference value: 9.26 %); type: functional
[24] = biological target: Insulin-like growth factor 2 mRNA-binding protein 1 (Homo sapiens, UniProt Q9NZI8); experiment: Binding affinity to His-tagged recombinant IGF2BP1 (unknown origin) assessed as dissociation constant by surface plasmon resonance assay
[25] = Acute toxicity in C57BL/6J mouse assessed as death at 0.75 mg/kg,ip measured after 14 days; type: organism-based; details: in vivo, 336 h, time 14 day
A549 [26] = experiment: Antitumor activity against human A549 cells xenografted in BALB/c mouse assessed as tumor growth inhibition at 0.5 mg/kg,ip administrated for 21 days; type: functional; details: A549, 504 h, time 21 day, read-out: TGI
HepG2 [27] = experiment: Antiproliferative activity against human HepG2 cells assessed as cell growth inhibition incubated for 72 hrs by MTT assay; type: functional, cell-based; details: HepG2, 72 h
[28] = Antiproliferative activity against human L02 cells assessed as cell growth inhibition incubated for 72 hrs by MTT assay; type: toxicity, cell-based

Insulin-like growth factor 2 mRNA-binding protein 1, sequence (Q9NZI8 whole entry): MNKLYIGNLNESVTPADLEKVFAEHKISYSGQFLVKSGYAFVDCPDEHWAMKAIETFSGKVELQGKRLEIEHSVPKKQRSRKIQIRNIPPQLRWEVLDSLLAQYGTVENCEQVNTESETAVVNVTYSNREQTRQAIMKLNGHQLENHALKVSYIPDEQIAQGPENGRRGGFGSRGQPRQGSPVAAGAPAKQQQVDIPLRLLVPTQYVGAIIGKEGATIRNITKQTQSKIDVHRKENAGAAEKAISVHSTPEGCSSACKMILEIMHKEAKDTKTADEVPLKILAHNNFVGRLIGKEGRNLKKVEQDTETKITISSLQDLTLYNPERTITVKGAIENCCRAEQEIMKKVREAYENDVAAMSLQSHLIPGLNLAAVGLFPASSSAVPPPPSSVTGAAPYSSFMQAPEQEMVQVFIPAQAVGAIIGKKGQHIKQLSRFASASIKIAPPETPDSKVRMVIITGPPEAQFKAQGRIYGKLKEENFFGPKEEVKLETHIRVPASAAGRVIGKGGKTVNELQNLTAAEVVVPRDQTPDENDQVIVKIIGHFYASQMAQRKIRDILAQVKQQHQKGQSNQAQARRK

## CC(=O)OC(C)(C)/C=C/C(=O)[C@](C)(O)[C@H]1[C@H](O)C[C@@]2(C)[C@@H]3CC=C4[C@@H](C[C@H](N)C(=O)C4(C)C)[C@]3(C)C(=O)C[C@]12C
A549 [1]
  pIC50: 6.92

## CC1(C)C(=O)[C@@H](O)C[C@@H]2C1=CC[C@@H]1[C@@]2(C)C(=O)C[C@]2(C)[C@@H]([C@@](C)(O)C(=O)/C=C/C(C)(C)c3cccc(C#N)c3)[C@H](O)C[C@@]12C
A549 [1]
  pIC50: 8.17

## CC(=O)OC(C)(C)/C=C/C(=O)[C@](C)(O)[C@H]1[C@H](O)C[C@@]2(C)[C@@H]3CC=C4[C@@H](C[C@H](OC(=O)Cn5ncn(-c6ccc(Cl)cc6)c5=O)C(=O)C4(C)C)[C@]3(C)C(=O)C[C@]12C
HCT-116 [2]
  inhibition at 1 µM: 84.4%
HCT-116 [3]
  inhibition at 0.1 µM: 69%
[4]
  inhibition at 72 h, 1 µM: 70.9%
[5]
  inhibition at 72 h, 0.1 µM: 61.3%
HCT-116 [6]
  pIC50: 7.20
[7]
  IC50 at 72 h: 31 nM
[8]
  selectivity ratio: 0.49

## CC(=O)OC(C)(C)/C=C/C(=O)[C@](C)(O)[C@H]1[C@H](O)C[C@@]2(C)[C@@H]3CC=C4[C@@H](C[C@H](OC(=O)c5cn(-c6ccc(F)cc6)nn5)C(=O)C4(C)C)[C@]3(C)C(=O)C[C@]12C
HCT-116 [2]
  inhibition at 1 µM: 87.4%
HCT-116 [3]
  inhibition at 0.1 µM: 65.3%
[4]
  inhibition at 72 h, 1 µM: 71.9%
[5]
  inhibition at 72 h, 0.1 µM: 36.4%
HCT-116 [6]
  pIC50: 7.51
[7]
  IC50 at 72 h: 80 nM
[8]
  selectivity ratio: 2.58

## CC(=O)OC(C)(C)/C=C/C(=O)[C@](C)(O)[C@H]1[C@H](O)C[C@@]2(C)[C@@H]3CC=C4[C@@H](C[C@H](OC(=O)Cn5ncn(-c6ccccc6)c5=O)C(=O)C4(C)C)[C@]3(C)C(=O)C[C@]12C
HCT-116 [2]
  inhibition at 1 µM: 82.2%
HCT-116 [3]
  inhibition at 0.1 µM: 67.9%
[4]
  inhibition at 72 h, 1 µM: 71.6%
[5]
  inhibition at 72 h, 0.1 µM: 59.6%
HCT-116 [6]
  pIC50: 7.29
[7]
  IC50 at 72 h: 80 nM
[8]
  selectivity ratio: 1.57

## COc1cc(-n2cnn(CC(=O)O[C@H]3C[C@@H]4C(=CC[C@@H]5[C@@]4(C)C(=O)C[C@]4(C)[C@@H]([C@@](C)(O)C(=O)/C=C/C(C)(C)OC(C)=O)[C@H](O)C[C@@]54C)C(C)(C)C3=O)c2=O)cc(OC)c1OC
HCT-116 [2]
  inhibition at 1 µM: 84.2%
HCT-116 [3]
  inhibition at 0.1 µM: 78%
[4]
  inhibition at 72 h, 1 µM: 70%
[5]
  inhibition at 72 h, 0.1 µM: 66%
HCT-116 [6]
  pIC50: 7.43
[7]
  IC50 at 72 h: 30 nM
[8]
  selectivity ratio: 0.81

## CC(=O)OC(C)(C)/C=C/C(=O)[C@](C)(O)[C@H]1[C@H](O)C[C@@]2(C)[C@@H]3CC=C4[C@@H](C[C@H](OC(=O)Cn5ncn(-c6ccc(C)cc6)c5=O)C(=O)C4(C)C)[C@]3(C)C(=O)C[C@]12C
HCT-116 [2]
  inhibition at 1 µM: 82.1%
HCT-116 [3]
  inhibition at 0.1 µM: 72.5%
[4]
  inhibition at 72 h, 1 µM: 68.2%
[5]
  inhibition at 72 h, 0.1 µM: 36.5%
HCT-116 [6]
  pIC50: 6.92
[7]
  IC50 at 72 h: 40 nM
[8]
  selectivity ratio: 0.33

## CC(=O)OC(C)(C)/C=C/C(=O)[C@](C)(O)[C@H]1[C@H](O)C[C@@]2(C)[C@@H]3CC=C4[C@@H](C[C@H](O)C(=O)C4(C)C)[C@]3(C)C(=O)C[C@]12C
HCT-116 [2]
  inhibition at 1 µM: 82.7%
HCT-116 [3]
  inhibition at 0.1 µM: 69%
[4]
  inhibition at 72 h, 1 µM: 70.7%
[5]
  inhibition at 72 h, 0.1 µM: 70.6%
HCT-116 [6]
  pIC50: 7.72
[7]
  IC50 at 72 h: 11 nM
[8]
  selectivity ratio: 0.57
A549 [9]
  pIC50: 7.06
MDA-MB-231
  pIC50: 7.43
MCF7
  pIC50: 7.40
SK-OV-3
  pIC50: 7.33
HeLa
  pIC50: 7.62
HepG2 [10]
  pIC50: 7.29
BXPC-3
  pIC50: 7.66
PANC-1
  pIC50: 7.17
CFPAC-1
  pIC50: 7.64
[11]
  selectivity ratio: 0.13
[12]
  selectivity ratio: 0.3
[13]
  selectivity ratio: 0.23
[14]
  Ratio IC50: 0.23
[15]
  selectivity ratio: 0.46
[16]
  selectivity ratio: 0.22
[17]
  selectivity ratio: 0.5
[18]
  Ratio IC50: 0.16
[19]
  Ratio IC50: 0.49
A549 [20]
  Activity: 29.1%
A549 [21]
  Activity: 51.1%
A549 [22]
  Activity: 10.2%
A549 [23]
  Activity: 37.2%
[24]
  pKd: 7.18
[25]
  Activity: Non-Toxic
A549 [26]
  inhibition in vivo at 0.5 mg/kg: 53%

## CC(=O)OC(C)(C)/C=C/C(=O)[C@](C)(O)[C@H]1[C@H](OCCCC(=O)OCCCOc2no[n+]([O-])c2S(=O)(=O)c2ccccc2)C[C@@]2(C)[C@@H]3CC=C4[C@@H](C[C@H](O)C(=O)C4(C)C)[C@]3(C)C(=O)C[C@]12C
HepG2 [27]
  pIC50: 6.20
[28]
  IC50 at 72 h: 2970 nM
